The text below walks through data of US6235284A, “Synthetic polypeptides belonging to the hepatitis C virus (HCV) and which can be used especially for detecting the latter” (Bio Merieux, priority 1992, dated 2001).

Values joined by “and” are separate entries in the source; they are usually repeats but may differ in a detail not shown here. Equal values may be shown once.

In one assay the test system is normal sera. Description: ELISA of peptides on normal sera (specificity). Format: binding, human. Conditions: peptide 10 μg/ml, duplicate. How it is done: (§1) Detection of anti-HCV Antibodies by ELISA
(§2) The wells of a microtiter plate of "NUNC MAXISORB™" trademark are saturated with 100 μl of a solution containing the peptide or a mixture of peptides (10 μg/ml) for 2 hours at 37° C. The plate is then emptied, then washed with a wash buffer containing 0.05% TWEEN™ 20(polysorbate 20). The wells are saturated with 100 μl of wash buffer supplemented with 10% goat serum (v/v), then incubated for 30 minutes at 37° C., then washed again as above. The sera to be analyzed are diluted to the appropriate dilution with saturation buffer. The incubation of the sera is 1 hour at 37° C. The wells are again washed. The solution of conjugate (goat IgG to human IgG labelled with peroxidase) at a dilution of 1/1000 in the saturation buffer is then added and the incubation lasts for 90 minutes at 37° C. After washing, the solution of orthophenylenediamine substrate is added. After 10 minutes, the reaction is stopped with 50 μl of H2 SO4 and the optical density is read at 492 nm. It should be noted that all the tests were carried out in duplicate.
(§3) For that, the different peptides are adsorbed on the microplates at a concentration of 10 μg/ml and the sera are used at 1/100 dilution.
(§4) The values obtained, which are collated in Table 1 below, correspond to the optical density (OD) multiplied by 10^3, at 492 nm.
(§5) For each serum the experiment was carried out in duplicate. The **** are values outside the upper scale.
(In an ELISA, binding on a coated surface is turned into a signal by an enzyme label.)

Assay [1] concerns anti-HCV antibodies (HCV-positive sera). Kind of assay: ELISA detection of anti-HCV antibodies in HCV-positive sera with adsorbed peptides. Format: binding, human. Here is the method:
The reactivity of these three peptides towards the sera of individuals infected with the hepatitis C virus, termed (HCV) positive, was evaluated in an ELISA test according to the procedure described below.
as §1, §2, §3, §4, §5
The different peptides are absorbed onto microplates at a concentration of 10 μg/ml and the sera are used at the dilution stated.
The values obtained, which are collated in Table 2 below, correspond to the optical density at 492 nm. All the experiments were carried out in duplicate.
Each serum was, in a first instance, tested at the dilution 1/100.
The values given correspond to the optical density read at 492 nm multiplied by the factor 10^3.

In a further assay the test system is HCV-positive sera. As to conditions: Nasoff et al., recombinant fusion proteins; cited from earlier work.

Regarding “R40R: peptide extending from arginine 74 up to arginine 115 of the HCV CORE protein (RTWAQPGYPWPLYGNEGCGWAGWLLSPRGSRPSWGPTDPRRR)”, the “optical density at 492 nm” value was 163 OD × 10^3 and 154 OD × 10^3 in the assay with normal sera (normal serum SN 10, 1/100); 150 OD × 10^3 and 138 OD × 10^3 with normal sera (normal serum SN 11, 1/100); 426 OD × 10^3 and 439 OD × 10^3 with normal sera (normal serum SN 16, 1/100); 104 OD × 10^3 and 74 OD × 10^3 with normal sera (normal serum SN 17, 1/100); 119 OD × 10^3 and 87 OD × 10^3 in the assay with normal sera (normal serum SN 18, 1/100); 480 OD × 10^3 and 496 OD × 10^3 in the assay with normal sera (normal serum SN 19, 1/100). The “optical density at 492 nm” value is 172 OD × 10^3 and 173 OD × 10^3 in assay [1] (serum B 1, 1/100, peptide 10 μg/ml, duplicate); 364 OD × 10^3 and 345 OD × 10^3 in assay [1] (serum B 2, 1/100, peptide 10 μg/ml, duplicate); 304 OD × 10^3 and 341 OD × 10^3 in assay [1] (serum B 3, 1/100, peptide 10 μg/ml, duplicate); 405 OD × 10^3 and 346 OD × 10^3 in assay [1] (serum B 4, 1/100, peptide 10 μg/ml, duplicate); 360 OD × 10^3 and 281 OD × 10^3 in assay [1] (serum B 5, 1/100, peptide 10 μg/ml, duplicate); 172 OD × 10^3 and 163 OD × 10^3 in assay [1] (serum B 6, 1/100, peptide 10 μg/ml, duplicate). The “optical density at 492 nm” value was 418 OD × 10^3 and 457 OD × 10^3 in assay [1] (serum B 7, 1/100, peptide 10 μg/ml, duplicate); 271 OD × 10^3 and 259 OD × 10^3 in assay [1] (serum B 8, 1/100, peptide 10 μg/ml, duplicate); 235 OD × 10^3 and 229 OD × 10^3 in assay [1] (serum B 9, 1/100, peptide 10 μg/ml, duplicate); 108 OD × 10^3 and 98 OD × 10^3 in assay [1] (serum B 10, 1/100, peptide 10 μg/ml, duplicate); 164 OD × 10^3 and 184 OD × 10^3 in assay [1] (serum B 11, 1/100, peptide 10 μg/ml, duplicate); 136 OD × 10^3 and 117 OD × 10^3 in assay [1] (serum B 12, 1/100, peptide 10 μg/ml, duplicate). Further, the “optical density at 492 nm” value in assay [1] (serum B 13, 1/100, peptide 10 μg/ml, duplicate) was 140 OD × 10^3 and 99 OD × 10^3; in assay [1] (serum B 14, 1/100, peptide 10 μg/ml, duplicate) it was 130 OD × 10^3 and 125 OD × 10^3; in assay [1] (serum B 15, 1/100, peptide 10 μg/ml, duplicate), 301 OD × 10^3 and 303 OD × 10^3; in assay [1] (serum B 16, 1/100, peptide 10 μg/ml, duplicate), 117 OD × 10^3 and 125 OD × 10^3; in assay [1] (serum P 1, 1/100, peptide 10 μg/ml, duplicate), 375 OD × 10^3 and 420 OD × 10^3; in assay [1] (serum P 2, 1/100, peptide 10 μg/ml, duplicate), 399 OD × 10^3 and 391 OD × 10^3. Besides, the “optical density at 492 nm” value is 223 OD × 10^3 and 215 OD × 10^3 in assay [1] (serum P 3, 1/100, peptide 10 μg/ml, duplicate); 309 OD × 10^3 and 307 OD × 10^3 in assay [1] (serum P 4, 1/100, peptide 10 μg/ml, duplicate); 129 OD × 10^3 and 176 OD × 10^3 in assay [1] (serum P 5, 1/100, peptide 10 μg/ml, duplicate); 87 OD × 10^3 and 100 OD × 10^3 in assay [1] (serum P 6, 1/100, peptide 10 μg/ml, duplicate); 496 OD × 10^3 and 478 OD × 10^3 in assay [1] (serum P 7, 1/100, peptide 10 μg/ml, duplicate); 282 OD × 10^3 and 328 OD × 10^3 in assay [1] (serum P 8, 1/100, peptide 10 μg/ml, duplicate). Further, the “optical density at 492 nm” value in assay [1] (serum P 9, 1/100, peptide 10 μg/ml, duplicate) is 159 OD × 10^3 and 158 OD × 10^3; in assay [1] (serum P 10, 1/100, peptide 10 μg/ml, duplicate) it was 218 OD × 10^3 and 216 OD × 10^3; in assay [1] (serum P 11, 1/100, peptide 10 μg/ml, duplicate), 1191 OD × 10^3 and 1377 OD × 10^3; in assay [1] (serum P 12, 1/100, peptide 10 μg/ml, duplicate), 1121 OD × 10^3 and 1231 OD × 10^3; in assay [1] (serum P 13, 1/100, peptide 10 μg/ml, duplicate) it was 113 OD × 10^3 and 116 OD × 10^3; in assay [1] (serum P 14, 1/100, peptide 10 μg/ml, duplicate) it was 280 OD × 10^3 and 270 OD × 10^3. Besides, the “optical density at 492 nm” value in assay [1] (serum P 15, 1/100, peptide 10 μg/ml, duplicate) is 2305 OD × 10^3 and 2335 OD × 10^3; in assay [1] (serum P 16, 1/100, peptide 10 μg/ml, duplicate), 938 OD × 10^3 and 964 OD × 10^3; in assay [1] (serum P 17, 1/100, peptide 10 μg/ml, duplicate) it was 217 OD × 10^3 and 212 OD × 10^3; in assay [1] (serum P 18, 1/100, peptide 10 μg/ml, duplicate) it was 1427 OD × 10^3 and 1327 OD × 10^3; in assay [1] (serum P 19, 1/100, peptide 10 μg/ml, duplicate) it was 84 OD × 10^3 and 89 OD × 10^3; in assay [1] (serum P 20, 1/100, peptide 10 μg/ml, duplicate) it was 714 OD × 10^3 and 740 OD × 10^3. In addition, the “sera with which the peptide reacts” value in assay [1] (cf Table 1) was “about 10%”.
Take “S32Y: peptide corresponding to the amino acid sequence 2 to 35 of the CORE protein (STNPKPQRKTKRNTNRRPQDVKFPGGGQIVGGVY)”: the “optical density at 492 nm” value in assay [1] (Table 4, serum A 8, 1/1000) is on record as 1372 OD × 10^3; in assay [1] (Table 4, serum A 8, 1/10,000), 173 OD × 10^3; in assay [1] (Table 4, serum A 9, 1/1000), 1941 OD × 10^3; in assay [1] (Table 4, serum A 9, 1/10,000), 297 OD × 10^3; in assay [1] (Table 4, serum A 10, 1/1000), 373 OD × 10^3; in assay [1] (Table 4, serum A 10, 1/10,000), 33 OD × 10^3. Further, the “optical density at 492 nm” value is given as 2240 OD × 10^3 in assay [1] (Table 4, serum A 11, 1/100); 228 OD × 10^3 in assay [1] (Table 4, serum A 11, 1/1000); 36 OD × 10^3 in assay [1] (Table 4, serum A 11, 1/10,000); 588 OD × 10^3 in assay [1] (Table 4, serum A 12, 1/10,000); 703 OD × 10^3 in assay [1] (Table 4, serum P 1, 1/100); 1177 OD × 10^3 in assay [1] (Table 4, serum P 2, 1/100). The “optical density at 492 nm” value turned out to be 1576 OD × 10^3 in assay [1] (Table 4, serum P 3, 1/100); 2165 OD × 10^3 in assay [1] (Table 4, serum P 4, 1/1000); 369 OD × 10^3 in assay [1] (Table 4, serum P 4, 1/10,000); 1242 OD × 10^3 in assay [1] (Table 4, serum P 5, 1/10,000); 1932 OD × 10^3 in assay [1] (Table 4, serum P 7, 1/10,000); 1068 OD × 10^3 in assay [1] (Table 4, serum P 8, 1/10,000). Moreover, the “optical density at 492 nm” value in assay [1] (Table 4, serum P 10, 1/100) was 78 OD × 10^3; in assay [1] (Table 4, serum P 14, 1/10,000) it was 601 OD × 10^3; in assay [1] (Table 4, serum P 16, 1/1000), 983 OD × 10^3; in assay [1] (Table 4, serum P 16, 1/10,000) it was 124 OD × 10^3; in assay [1] (Table 4, serum P 23, 1/100) it was 157 OD × 10^3; in assay [1] (Table 4, serum P 24, 1/100) it was 1214 OD × 10^3. In addition, the “optical density at 492 nm” value in assay [1] (Table 4, serum P 29, 1/100) amounted to 400 OD × 10^3.
Regarding glutathione S-transferase, the “reactivity towards HCV-positive sera” value in the assay with HCV-positive sera is listed as “none of the sera tested reacts”.
